Among the data in patent US20250136595A1, “ACYLATED HETEROCYCLIC QUINAZOLINE DERIVATIVES AS INHIBITORS OF ERBB2” (Enliven Inc., priority 2022, published 2025) are GI50 and IC50 values, retold here.

SMILES strings stand for the structures. Where a name gives a salt, the structure may show the parent alone. Bounds are passed on as bounds.

Assay [1] deals with Ba/F3 ERBB2 YVMA (Homo sapiens, UniProt P04626, DUP772-775, cells depend on it). Nature of the assay: Cell viability assay (CellTiter Glo) in Ba/F3 cells engineered to express ERBB2 YVMA. The class given is cell-based, mouse. The note with it: Ba/F3 cells expressing human ERBB2 YVMA mutant, 72 hours, % viability, read-out: Ba/F3 ERBB2 YVMA IC50. The gist of the method: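 IL-3-independent mouse Ba/F3 line stably transduced with human ERBB2 YVMA, seeded at 3000 cells/well, exposed to serially diluted compound (≤0.1% DMSO) for 72 h at 37° C. ATP read by CellTiter Glo luminescence, normalised to DMSO and media-only controls; sigmoidal nonlinear regression fit.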
Sequence of Ba/F3 ERBB2 YVMA (P04626 with tags, fused parts or gaps DUP772-775): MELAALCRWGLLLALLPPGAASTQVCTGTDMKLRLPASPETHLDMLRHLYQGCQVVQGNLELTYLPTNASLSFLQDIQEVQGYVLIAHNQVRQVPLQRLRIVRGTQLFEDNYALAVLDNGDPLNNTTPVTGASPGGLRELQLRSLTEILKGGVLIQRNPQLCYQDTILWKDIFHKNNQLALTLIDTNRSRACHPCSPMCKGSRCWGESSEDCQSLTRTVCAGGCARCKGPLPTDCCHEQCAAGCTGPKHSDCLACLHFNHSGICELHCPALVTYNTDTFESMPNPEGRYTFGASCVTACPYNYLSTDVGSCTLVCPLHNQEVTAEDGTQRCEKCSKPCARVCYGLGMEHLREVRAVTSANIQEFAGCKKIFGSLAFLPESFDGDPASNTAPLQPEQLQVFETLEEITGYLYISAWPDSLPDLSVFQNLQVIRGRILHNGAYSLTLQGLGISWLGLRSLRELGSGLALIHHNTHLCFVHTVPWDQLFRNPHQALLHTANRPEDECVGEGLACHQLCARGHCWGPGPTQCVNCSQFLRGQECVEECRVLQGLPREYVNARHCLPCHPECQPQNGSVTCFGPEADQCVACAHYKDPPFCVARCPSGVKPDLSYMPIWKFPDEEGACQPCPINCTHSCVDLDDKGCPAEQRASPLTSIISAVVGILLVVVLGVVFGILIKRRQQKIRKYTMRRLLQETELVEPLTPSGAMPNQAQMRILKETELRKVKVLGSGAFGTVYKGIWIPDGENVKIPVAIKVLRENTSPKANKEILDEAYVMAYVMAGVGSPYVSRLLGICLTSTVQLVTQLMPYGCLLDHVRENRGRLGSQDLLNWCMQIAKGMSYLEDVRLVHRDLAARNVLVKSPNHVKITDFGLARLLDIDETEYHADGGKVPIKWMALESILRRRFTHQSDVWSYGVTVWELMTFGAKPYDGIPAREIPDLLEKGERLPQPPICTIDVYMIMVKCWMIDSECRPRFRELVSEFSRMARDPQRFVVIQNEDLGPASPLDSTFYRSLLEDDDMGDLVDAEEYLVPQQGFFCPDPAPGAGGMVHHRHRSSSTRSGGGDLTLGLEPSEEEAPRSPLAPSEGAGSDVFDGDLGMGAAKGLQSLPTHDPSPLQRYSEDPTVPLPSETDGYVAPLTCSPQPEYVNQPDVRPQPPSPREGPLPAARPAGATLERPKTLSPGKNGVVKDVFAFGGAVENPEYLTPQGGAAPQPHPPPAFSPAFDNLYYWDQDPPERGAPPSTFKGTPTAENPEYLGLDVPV
On the technique in general: Cellular ATP, detected with luciferase, serves as a proxy for viable cell number.

Assay [2] addresses T1, phosphorylated ERBB2 (pERBB2) (Homo sapiens, UniProt P04626).
T1 construct: endogenous in cells; host or cells: BT-474
Briefly: Detection of phosphorylated ERBB2 (pERBB2) by ELISA in BT-474 cells. Format: cell-based. The note with it: four hour incubation with compound. The gist of the method: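 BT-474 cells treated 4 h at 37 °C, 5% CO2 with four-fold dilutions (10 μM to 0.01 nM final). Lysates analysed by ELISA for pERBB2, TMB read at OD 450 nm. % relative activity normalised to no-cell (low) and 0.1% DMSO-treated (high) controls.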
For orientation: In an ELISA, binding on a coated surface is turned into a signal by an enzyme label.

The target of assay [3] is T2, phosphorylated EGFR (pEGFR) (Homo sapiens, UniProt P00533).
T2 construct: performed to measure phosphorylated EGFR levels using A431 cells; endogenous in cells; host or cells: A431
T2 sequence (P00533 25-1210): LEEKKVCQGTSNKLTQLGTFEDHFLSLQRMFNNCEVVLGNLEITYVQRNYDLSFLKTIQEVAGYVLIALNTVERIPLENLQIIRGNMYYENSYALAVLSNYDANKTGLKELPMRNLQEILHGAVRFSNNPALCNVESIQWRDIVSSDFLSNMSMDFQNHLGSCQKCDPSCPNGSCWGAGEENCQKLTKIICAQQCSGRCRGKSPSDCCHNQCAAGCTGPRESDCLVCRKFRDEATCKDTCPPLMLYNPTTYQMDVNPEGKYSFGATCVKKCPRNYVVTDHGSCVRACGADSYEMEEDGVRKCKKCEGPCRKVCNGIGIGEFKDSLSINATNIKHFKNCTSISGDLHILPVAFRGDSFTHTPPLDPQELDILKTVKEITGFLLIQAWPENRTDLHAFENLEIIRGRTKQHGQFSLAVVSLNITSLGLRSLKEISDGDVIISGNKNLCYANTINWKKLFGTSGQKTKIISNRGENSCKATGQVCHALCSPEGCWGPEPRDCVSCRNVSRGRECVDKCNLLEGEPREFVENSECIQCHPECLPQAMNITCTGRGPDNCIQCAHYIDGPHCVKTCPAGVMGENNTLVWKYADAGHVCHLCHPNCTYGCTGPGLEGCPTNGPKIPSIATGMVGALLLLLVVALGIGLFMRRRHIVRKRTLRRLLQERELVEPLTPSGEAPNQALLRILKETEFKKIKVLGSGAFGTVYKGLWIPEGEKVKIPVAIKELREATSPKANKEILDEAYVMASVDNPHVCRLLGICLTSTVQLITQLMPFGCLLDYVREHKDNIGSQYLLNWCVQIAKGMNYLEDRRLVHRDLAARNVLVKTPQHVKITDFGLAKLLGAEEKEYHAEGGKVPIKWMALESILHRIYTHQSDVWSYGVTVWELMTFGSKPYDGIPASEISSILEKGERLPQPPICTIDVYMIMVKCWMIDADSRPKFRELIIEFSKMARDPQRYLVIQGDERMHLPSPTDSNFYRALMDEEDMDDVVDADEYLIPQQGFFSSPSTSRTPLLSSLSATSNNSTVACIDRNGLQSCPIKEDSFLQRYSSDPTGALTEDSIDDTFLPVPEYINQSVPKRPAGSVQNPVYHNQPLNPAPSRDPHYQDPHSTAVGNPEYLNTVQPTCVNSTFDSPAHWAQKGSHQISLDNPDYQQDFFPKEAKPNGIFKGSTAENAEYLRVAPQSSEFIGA
Briefly: Detection of phosphorylated EGFR (pEGFR) in EGF-stimulated A431 cells (AlphaLISA). Format: cell-based. The note with it: A431 cells (10% FBS), 4 hours incubation, EGF 30 ng/mL for 10 minutes. The gist of the method: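 Cells in 10% FBS treated with compound 4 h at 37° C., then stimulated 10 min with 30 ng/mL EGF, lysed, and pEGFR measured by AlphaLISA. Inhibition normalized to DMSO and staurosporine controls; IC50 from four-parameter logistic fit.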
A general note: In Alpha technology, singlet oxygen from a donor bead excites a nearby acceptor bead.

T1 sequence (P04626 23-1255): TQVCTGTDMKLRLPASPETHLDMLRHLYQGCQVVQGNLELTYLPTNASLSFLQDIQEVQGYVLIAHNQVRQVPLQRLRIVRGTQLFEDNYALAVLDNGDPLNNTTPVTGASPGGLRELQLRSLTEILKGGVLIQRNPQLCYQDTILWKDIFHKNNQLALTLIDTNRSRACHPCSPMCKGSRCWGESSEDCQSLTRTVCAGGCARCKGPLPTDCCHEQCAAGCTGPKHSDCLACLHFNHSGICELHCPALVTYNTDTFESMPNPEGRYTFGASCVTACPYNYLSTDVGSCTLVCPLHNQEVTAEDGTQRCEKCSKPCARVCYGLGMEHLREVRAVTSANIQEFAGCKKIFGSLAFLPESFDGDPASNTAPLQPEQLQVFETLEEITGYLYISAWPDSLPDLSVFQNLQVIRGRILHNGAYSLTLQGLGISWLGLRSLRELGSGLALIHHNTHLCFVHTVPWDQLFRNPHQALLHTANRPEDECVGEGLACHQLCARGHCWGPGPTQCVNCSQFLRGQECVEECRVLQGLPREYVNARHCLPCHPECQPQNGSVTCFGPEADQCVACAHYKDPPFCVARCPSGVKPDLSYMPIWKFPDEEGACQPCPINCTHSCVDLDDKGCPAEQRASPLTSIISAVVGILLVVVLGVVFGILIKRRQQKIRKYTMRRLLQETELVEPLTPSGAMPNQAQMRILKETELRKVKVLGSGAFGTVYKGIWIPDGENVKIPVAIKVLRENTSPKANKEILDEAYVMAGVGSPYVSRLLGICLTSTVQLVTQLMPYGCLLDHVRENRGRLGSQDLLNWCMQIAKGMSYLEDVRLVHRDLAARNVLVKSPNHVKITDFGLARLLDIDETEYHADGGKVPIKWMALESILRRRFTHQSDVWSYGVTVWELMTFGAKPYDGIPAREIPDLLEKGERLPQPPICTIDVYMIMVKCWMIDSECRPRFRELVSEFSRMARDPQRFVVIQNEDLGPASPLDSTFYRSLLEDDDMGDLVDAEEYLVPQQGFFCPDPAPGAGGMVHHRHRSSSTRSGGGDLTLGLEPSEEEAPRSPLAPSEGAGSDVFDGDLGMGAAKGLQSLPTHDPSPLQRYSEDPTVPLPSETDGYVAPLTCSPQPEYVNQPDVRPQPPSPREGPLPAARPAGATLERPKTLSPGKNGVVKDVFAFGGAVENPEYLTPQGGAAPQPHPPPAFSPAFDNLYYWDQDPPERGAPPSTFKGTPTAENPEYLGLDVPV

What is called IC50 is the concentration that inhibits the measured activity by half. `Cc1cc(Nc2ncnc3ccc(N4CCN(C(=O)/C=C/CN(C)C)[C@H](C)C4)nc23)ccc1Oc1ccc2c(c1)ncn2C` [Compound 80, (2E)-4-(dimethylamino)-1-[(2R)-2-methyl-4-[4-({3-methyl-4-[(1-methyl-1,3-benzodiazol-5-yl)oxy]phenyl}amino)pyrido[3,2-d]pyrimidin-6-yl]piperazin-1-yl]but-2-en-1-one]: the GI50 in assay [1] came out at 11.3 nM. Besides, the figures for the IC50 in assay [2] and in assay [3] were 28.8 nM and 2760 nM, respectively.
For the molecule `C=CC(=O)N1CCN(c2ccc3ncnc(Nc4ccc(Cc5ccn6ncnc6c5)c(C)c4)c3c2)CC1` [Compound 81, 1-(4-(4-((4-([1,2,4]triazolo[1,5-a]pyridin-7-ylmethyl)-3-methylphenyl)amino)quinazolin-6-yl)piperazin-1-yl)prop-2-en-1-one], in assay [1], the GI50 was found to be 17.8 nM. Further, the IC50 in assay [2] stood at 11 nM; in assay [3], 2360 nM.
As for `C=CC(=O)N1CCN(c2ccc3ncnc(Nc4ccc(Cc5ccc6c(c5)ncn6C)c(C)c4)c3n2)CC1` [Compound 82, 1-{4-[4-({3-methyl-4-[(1-methyl-1,3-benzodiazol-5-yl)methyl]phenyl}amino)pyrido[3,2-d]pyrimidin-6-yl]piperazin-1-yl}prop-2-en-1-one], the GI50 in assay [1] was 93.9 nM. Also, the half-maximal inhibitory concentration (IC50) amounted to 54.1 nM in assay [2] and 2090 nM in assay [3].
On the same counts, the results for `C=CC(=O)N1CCN(c2cc3c(Nc4ccc(Cc5ccc6c(c5)ncn6C)c(C)c4)ncnc3cn2)CC1` [Compound 83, 1-{4-[4-({3-methyl-4-[(1-methyl-1,3-benzodiazol-5-yl)methyl]phenyl}amino)pyrido[3,4-d]pyrimidin-6-yl]piperazin-1-yl}prop-2-en-1-one; formic acid] are 12.5 nM, 25.5 nM and 1390 nM.
On the same counts, the results for `C=CC(=O)N1CCN(c2ncc3ncnc(Nc4ccc(Cc5ccc6c(c5)ncn6C)c(C)c4)c3n2)CC1` [Compound 84, 1-{4-[8-({3-methyl-4-[(1-methyl-1,3-benzodiazol-5-yl)methyl]phenyl}amino)-[1,3]diazino[5,4-d]pyrimidin-2-yl]piperazin-1-yl}prop-2-en-1-one] are 10.7 nM, 25.2 nM and more than 10000 nM.
The matching figures for `C=CC(=O)N1CCN(c2cc3c(Nc4ccc(Cc5ccn6ncnc6c5)c(C)c4)ncnc3cn2)[C@@H](C)C1` [Compound 85, (S)-1-(4-(4-((4-([1,2,4]triazolo[1,5-a]pyridin-7-ylmethyl)-3-methylphenyl)amino)pyrido[3,4-d]pyrimidin-6-yl)-3-methylpiperazin-1-yl)prop-2-en-1-one]: 69.7 nM, 47.7 nM and more than 10000 nM.
Turning to `C=CC(=O)N1CCN(c2cc3c(Nc4ccc(Cc5ccc6c(c5)ncn6C)c(C)c4)ncnc3cn2)[C@@H](C)C1` [Compound 86, 1-[(3S)-3-methyl-4-[4-({3-methyl-4-[(1-methyl-1,3-benzodiazol-5-yl)methyl]phenyl}amino)pyrido[3,4-d]pyrimidin-6-yl]piperazin-1-yl]prop-2-en-1-one], the GI50 in assay [1] was determined as 20.5 nM. Also, the IC50 in assay [2] is 48.4 nM; in assay [3], 3180 nM.
The matching figures for `Cc1cc(Nc2ncnc3ccc(N4CCN(C(=O)/C=C/CN(C)C)CC4)nc23)ccc1Cc1ccn2ncnc2c1` [Compound 87, (E)-1-(4-(4-((4-([1,2,4]triazolo[1,5-a]pyridin-7-ylmethyl)-3-methylphenyl)amino)pyrido[3,2-d]pyrimidin-6-yl)piperazin-1-yl)-4-(dimethylamino)but-2-en-1-one]: 17.3 nM, 12.9 nM and 2420 nM.
The matching figures for `C=CC(=O)N1CCN(c2ccc3ncnc(Nc4ccc(Oc5ccc6c(c5)ncn6C)c(C)c4)c3c2)CC1` [Compound 88, 1-{4-[4-({3-methyl-4-[(1-methyl-1,3-benzodiazol-5-yl)oxy]phenyl}amino)quinazolin-6-yl]piperazin-1-yl}prop-2-en-1-one]: 22 nM, 16.6 nM and 729 nM.
In the case of `C=CC(=O)N1CCN(c2ccc3ncnc(Nc4ccc(Oc5ccc6c(c5)ncn6C)c(C)c4)c3c2)[C@@H](C)C1` [Compound 89, 1-[(3S)-3-methyl-4-[4-({3-methyl-4-[(1-methyl-1,3-benzodiazol-5-yl)oxy]phenyl}amino)quinazolin-6-yl]piperazin-1-yl]prop-2-en-1-one], the GI50 in assay [1] came to 152 nM. Also, the IC50 in assay [2] was determined as 19 nM; in assay [3] it was 5380 nM.
For `C=CC(=O)N1CCN(c2ccc3ncnc(Nc4ccc(Oc5ccn6ncnc6c5)c(C)c4)c3c2)[C@@H](C)C1` [Compound 90, (S)-1-(4-(4-((4-([1,2,4]triazolo[1,5-a]pyridin-7-yloxy)-3-methylphenyl)amino)quinazolin-6-yl)-3-methylpiperazin-1-yl)prop-2-en-1-one], the GI50 in assay [1] stood at 12 nM. The IC50 in assay [2] amounted to 14.4 nM; in assay [3], 3230 nM.
On to `C=CC(=O)N1CCN(c2ccc3ncnc(Nc4ccc(Oc5ccc(C)nc5)c(C)c4)c3n2)CC1` [Compound 91, 1-(4-(4-(3-methyl-4-(6-methylpyridin-3-yloxy)phenylamino)pyrido[3,2-d]pyrimidin-6-yl)piperazin-1-yl)prop-2-en-1-one], for which the GI50 in assay [1] was determined as 17.5 nM. The values for the IC50 in assay [2] and in assay [3] were 21.9 nM and 329 nM, respectively.
On the same counts, the results for `Cc1cc(Nc2ncnc3ccc(N4CCN(C(=O)/C=C/CN(C)C)CC4)c(F)c23)ccc1Cc1ccn2ncnc2c1` [Compound 92, (2E)-4-(dimethylamino)-1-(4-{5-fluoro-4-[(3-methyl-4-{[1,2,4]triazolo[1,5-a]pyridin-7-ylmethyl}phenyl)amino]quinazolin-6-yl}piperazin-1-yl) but-2-en-1-one] are 110 nM, 31.6 nM and more than 10000 nM.
On the same counts, the results for `Cc1cc(Nc2ncnc3ccc(N4CCN(C(=O)/C=C/CN(C)C)[C@H](C)C4)c(F)c23)ccc1Cc1ccn2ncnc2c1` [Compound 93, (2E)-4-(dimethylamino)-1-[(2R)-4-{5-fluoro-4-[(3-methyl-4-{[1,2,4]triazolo[1,5-a]pyridin-7-ylmethyl}phenyl)amino]quinazolin-6-yl}-2-methylpiperazin-1-yl]but-2-en-1-one formate] are 49 nM, 30.7 nM and more than 10000 nM.
The matching figures for `Cc1cc(Nc2ncnc3ccc(N4CCN(C(=O)/C=C/CN(C)C)CC4C)c(F)c23)ccc1Cc1ccn2ncnc2c1` (stereo not drawn) [Compound 94, (E)-1-(4-(4-((4-([1,2,4]triazolo[1,5-a]pyridin-7-ylmethyl)-3-methylphenyl)amino)-5-fluoroquinazolin-6-yl)-3-methylpiperazin-1-yl)-4-(dimethylamino)but-2-en-1-one]: more than 500 nM, 160 nM and more than 10000 nM.
Consider `C=CC(=O)N1CC2CCC(C1)N2c1ccc2ncnc(Nc3ccc(Cc4ccn5ncnc5c4)c(C)c3)c2n1` [Compound 95, 1-(8-{4-[(3-methyl-4-{[1,2,4]triazolo[1,5-a]pyridin-7-ylmethyl}phenyl)amino]pyrido[3,2-d]pyrimidin-6-yl}-3,8-diazabicyclo[3.2.1]octan-3-yl)prop-2-en-1-one], for which the GI50 in assay [1] turned out to be 6.96 nM. Moreover, the IC50 in assay [2] was 21.2 nM; in assay [3] it was 1800 nM.
On the same counts, the results for `C=CC(=O)N1CCN(c2ncc3ncnc(Nc4ccc(Cc5ccc6c(c5)ncn6C)c(C)c4)c3n2)C[C@H]1C` [Compound 96, (R)-1-(2-methyl-4-(8-((3-methyl-4-((1-methyl-1H-benzo[d]imidazol-5-yl)methyl)phenyl)amino)pyrimido[5,4-d]pyrimidin-2-yl)piperazin-1-yl)prop-2-en-1-one] are 12.5 nM, 63.1 nM and 7290 nM.
On the same counts, the results for `C=CC(=O)N1CCN(c2cc3c(Nc4ccc(Cc5ccc6c(c5)ncn6C)c(C)c4)ncnc3cn2)C[C@H]1C` [Compound 97, (R)-1-(2-methyl-4-(4-((3-methyl-4-((1-methyl-1H-benzo[d]imidazol-5-yl)methyl)phenyl)amino)pyrido[3,4-d]pyrimidin-6-yl)piperazin-1-yl)prop-2-en-1-one] are 52.4 nM, 24.2 nM and 4950 nM.
On the same counts, the results for `C=CC(=O)N1CCN(c2ccc3ncnc(Nc4ccc(O[C@@H]5CCCOC5)c(C)c4)c3n2)CC1` [Compound 98, 1-{4-[4-({3-methyl-4-[(3R)-oxan-3-yloxy]phenyl}amino)pyrido[3,2-d]pyrimidin-6-yl]piperazin-1-yl}prop-2-en-1-one] are 64.4 nM, 65.6 nM and 186 nM.
In the case of `C=CC(=O)N1CCN(c2cc3c(Nc4ccc(CN5CCn6ncnc6C5)c(C)c4)ncnc3cn2)CC1` [Compound 99, 1-(4-{4-[(3-methyl-4-{5H,6H,8H-[1,2,4]triazolo[1,5-a]pyrazin-7-ylmethyl}phenyl)amino]pyrido[3,4-d]pyrimidin-6-yl}piperazin-1-yl)prop-2-en-1-one], in assay [1], the GI50 is more than 500 nM. The IC50 is 227 nM in assay [2] and more than 10000 nM in assay [3].
